Laboratory results reported in publication PMC10138554, “Insights into the Microbicidal, Antibiofilm, Antioxidant and Toxicity Profile of New O-Aryl-Carbamoyl-Oxymino-Fluorene Derivatives” (International Journal of Molecular Sciences, 2023).
Converted amounts (≈) assume the structure as drawn.

Key:
C. albicans ATCC 90029 [1] = test: MIC assay, serial two-fold microdilution in liquid medium; format: cell-based; settings: Candida albicans, ATCC90029; C. albicans ATCC 90029, planktonic, 37 °C, 24 h; read-out: minimum inhibitory concentration (MIC)
Protocol: (§1) The inhibitory activity of the obtained compounds has been assessed on five microbial strains, respectively: E. coli ATCC 25922, P. aeruginosa ATCC 27853, S. aureus ATCC 25923, E. faecalis ATCC 29212 and C. albicans ATCC 90029, in a planktonic and adherent growth state.
(§2) The MIC assay was performed by the serial two-fold microdilutions in a liquid medium, using a concentration range from 5 to 0.009 mg/mL and microbial suspensions of 0.5 MacFarland density. The wells containing only the microbial culture served as positive control and those containing the sterile culture medium as the negative control. The MIC values were read after incubation at 37 °C for 24 h.

E. coli ATCC 25922 [2] = test: as above; format: cell-based; settings: Escherichia coli, ATCC25922; E. coli ATCC 25922, planktonic, 37 °C, 24 h; read-out: minimum inhibitory concentration (MIC)
Protocol: as §1, §2

E. faecalis ATCC 29212 [3] = test: as above; format: cell-based; settings: Enterococcus faecalis, ATCC29212; E. faecalis ATCC 29212, planktonic, 37 °C, 24 h; read-out: minimum inhibitory concentration (MIC)
Protocol: as §1, §2

P. aeruginosa ATCC 27853 [4] = test: as above; format: cell-based; settings: Pseudomonas aeruginosa, ATCC27853; P. aeruginosa ATCC 27853, planktonic, 37 °C, 24 h; read-out: minimum inhibitory concentration (MIC)
Protocol: as §1, §2

S. aureus ATCC 25923 [5] = test: as above; format: cell-based; settings: Staphylococcus aureus, ATCC25923; S. aureus ATCC 25923, planktonic, 37 °C, 24 h; read-out: minimum inhibitory concentration (MIC)
Protocol: as §1, §2

C. albicans ATCC 90029 [6] = test: MBC assay, plating on solid medium after MIC reading; format: cell-based; settings: Candida albicans, ATCC90029, read-out: minimum bactericidal concentration (MBC)
Protocol: as §1
(§3) The MB assay was performed after reading the MIC values.

E. coli ATCC 25922 [7] = test: as above; format: cell-based; settings: Escherichia coli, ATCC25922, read-out: minimum bactericidal concentration (MBC)
Protocol: as §1, §3

E. faecalis ATCC 29212 [8] = test: as above; format: cell-based; settings: Enterococcus faecalis, ATCC29212, read-out: minimum bactericidal concentration (MBC)
Protocol: as §1, §3

P. aeruginosa ATCC 27853 [9] = test: as above; format: cell-based; settings: Pseudomonas aeruginosa, ATCC27853, read-out: minimum bactericidal concentration (MBC)
Protocol: as §1, §3

S. aureus ATCC 25923 [10] = test: as above; format: cell-based; settings: Staphylococcus aureus, ATCC25923, read-out: minimum bactericidal concentration (MBC)
Protocol: as §1, §3

S. aureus ATCC 25923 [11] = test: Anti-biofilm activity assay, purple violet microtiter method; format: cell-based, Staphylococcus aureus; settings: S. aureus ATCC 25923 biofilm
Protocol: as §1
(§4) The anti-biofilm activity assay was performed by the purple violet microtiter method, as previously described, allowing us to determine the minimal biofilm inhibitory concentration (MBEC). The same range of concentrations, as in the MIC assay, i.e., from 5 to 0.009 mg/mL has been tested.

P. aeruginosa ATCC 27853 [12] = test: as above; format: cell-based, Pseudomonas aeruginosa; settings: P. aeruginosa ATCC 27853 biofilm
Protocol: as §1, §4

E. coli ATCC 25922 [13] = test: as above; format: cell-based, Escherichia coli; settings: E. coli ATCC 25922 biofilm
Protocol: as §1, §4

E. faecalis ATCC 29212 [14] = test: Flow cytometry (FCM) membrane depolarization, DiBAC4(3); format: cell-based; settings: for staining index value (SI): E. faecalis ATCC 29212, DiBAC4, 18–24 h
Protocol: (§5) The investigation of potential mechanisms of antimicrobial action by flow cytometry (FCM) was performed on microbial cultures obtained after 18–24 h of microbial cell incubation in the presence of subinhibitory concentrations of the analyzed compounds. Thus, microbial suspensions with a density of approximately 10^6 CFU/mL were prepared in sterile saline phosphate buffer from exponentially growing microbial cultures, obtained on a solid culture medium. Subinhibitory concentrations of the compounds were prepared in Muller–Hinton liquid culture medium and inoculated with an equal amount of microbial suspension and incubated for 18–24 h at 37 °C.
(§6) Microbial suspensions inoculated in a liquid medium were used as growth control. After incubation, the DiBAC4 fluorochrome solution [bis-(1,3-dibutylbarbituric acid) trimethinoxonol] Invitrogen/Life Technologies, Carlsbad, was added (0.5 μg/mL).
(§7) Fluorescence intensity (FI) was measured with an Accuri C6 plus flow cytometer in the FITC fluorescence channel. Growth control was used to locate the microbial cell population for fluorescence measurements. DiBAC4 dye was used to detect changes in the microbial membrane potential. […] A twofold increased fluorescence intensity (median fluorescence intensity = MFI) was considered to correspond to the depolarized microbial cells. For each subinhibitory concentration, a coloring index (CI) was calculated which represents the ratio of fluorescence intensity (FI) of treated versus untreated cells.

S. aureus ATCC 25923 [15] = test: as above; format: cell-based, Staphylococcus aureus; settings: for staining index value (SI): S. aureus ATCC 25923, DiBAC4, 18–24 h
Protocol: as §5, §6, §7

C. albicans ATCC 90029 [16] = test: as above; format: cell-based, Candida albicans; settings: subinhibitory concentration tested 2.5 mg/mL, DiBAC4, 18–24 h
Protocol: as §5, §6, §7

[17] = subinhibitory concentration tested 1.25 mg/mL
[18] = subinhibitory concentration tested 2.5 mg/mL

SMILES | MIC (C. albicans ATCC 90029 [1]) | MIC (E. coli ATCC 25922 [2]) | MIC (E. faecalis ATCC 29212 [3]) | MIC (P. aeruginosa ATCC 27853 [4]) | MIC (S. aureus ATCC 25923 [5]) | MBC (C. albicans ATCC 90029 [6]) | MBC (E. coli ATCC 25922 [7]) | MBC (E. faecalis ATCC 29212 [8]) | MBC (P. aeruginosa ATCC 27853 [9]) | MBC (S. aureus ATCC 25923 [10]) | minimum biofilm inhibitory concentration (MBIC) (S. aureus ATCC 25923 [11]) | minimum biofilm inhibitory concentration (MBIC) (P. aeruginosa ATCC 27853 [12]) | minimum biofilm inhibitory concentration (MBIC) (E. coli ATCC 25922 [13]) | staining index value (SI) (E. faecalis ATCC 29212 [14]; [17]) | staining index value (SI) (S. aureus ATCC 25923 [15]; [17]) | staining index value (SI) (C. albicans ATCC 90029 [16]) | staining index value (SI) (E. faecalis ATCC 29212 [14]; [18]) | staining index value (SI) (S. aureus ATCC 25923 [15]; [18]) | changes in the membrane potential (E. faecalis ATCC 29212 [14]; E. faecalis ATCC 29212, subinhibitory concentration) | changes in the membrane potential (S. aureus ATCC 25923 [15]; S. aureus ATCC 25923, subinhibitory concentration)
O=C(Nc1ccc(Cl)c(Cl)c1)ON=C1c2ccccc2-c2ccccc21 [Compound 1d, 9-((3,4-dichloro-phenyl)carbamoyloxymino)fluoren] | 5000 µg/mL (≈ 13 mM) | 5000 µg/mL (≈ 13 mM) | 5000 µg/mL (≈ 13 mM) | 2500 µg/mL (≈ 6.52 mM) | 156 µg/mL (≈ 0.407 mM) | 10000 µg/mL (≈ 26.1 mM) | 5000 µg/mL (≈ 13 mM) | 5000 µg/mL (≈ 13 mM) | 2500 µg/mL (≈ 6.52 mM) | 312 µg/mL (≈ 0.814 mM) | 0.019 mg/mL | 1.25 mg/mL | 0.625 mg/mL | 44.54 | 4.2 | 20.21 |  |  |  | 
O=C(Nc1ccccc1)ON=C1c2ccccc2-c2ccccc21 [Compound 1a, 9-(phenylcarbamoyloxymino)fluoren] | 2500 µg/mL (≈ 7.95 mM) | 2500 µg/mL (≈ 7.95 mM) | 2500 µg/mL (≈ 7.95 mM) | 2500 µg/mL (≈ 7.95 mM) | 2500 µg/mL (≈ 7.95 mM) | 5000 µg/mL (≈ 15.9 mM) | 2500 µg/mL (≈ 7.95 mM) | 5000 µg/mL (≈ 15.9 mM) | 2500 µg/mL (≈ 7.95 mM) | 5000 µg/mL (≈ 15.9 mM) | 5 mg/mL | 0.009 mg/mL | 0.625 mg/mL |  |  | 4.94 | 2.21 | 3.5 |  | 
O=C(Nc1cccc(Cl)c1)ON=C1c2ccccc2-c2ccccc21 [Compound 1c, 9-((3-chloro-phenyl)carbamoyloxymino)fluoren] | 5000 µg/mL (≈ 14.3 mM) | 2500 µg/mL (≈ 7.17 mM) | 5000 µg/mL (≈ 14.3 mM) | 2500 µg/mL (≈ 7.17 mM) | 2500 µg/mL (≈ 7.17 mM) | 10000 µg/mL (≈ 28.7 mM) | 5000 µg/mL (≈ 14.3 mM) | 5000 µg/mL (≈ 14.3 mM) | 2500 µg/mL (≈ 7.17 mM) | 5000 µg/mL (≈ 14.3 mM) | 5 mg/mL | 1.25 mg/mL | 1.25 mg/mL | 0.32 |  |  |  | 0.19 | did not cause changes | did not cause changes
Cc1cccc(NC(=O)ON=C2c3ccccc3-c3ccccc32)c1 [Compound 1b, 9-((3-methyl-phenyl)carbamoyloximino)fluoren] | 5000 µg/mL (≈ 15.2 mM) | 5000 µg/mL (≈ 15.2 mM) | 10000 µg/mL (≈ 30.5 mM) | 2500 µg/mL (≈ 7.61 mM) | 2500 µg/mL (≈ 7.61 mM) | 10000 µg/mL (≈ 30.5 mM) | 5000 µg/mL (≈ 15.2 mM) | 10000 µg/mL (≈ 30.5 mM) | 2500 µg/mL (≈ 7.61 mM) | 5000 µg/mL (≈ 15.2 mM) | 2.5 mg/mL | 0.156 mg/mL | 0.078 mg/mL |  |  | 2.82 | 3.99 | 8.17 |  | 
